The target of experiment [1] is T1, R140Q IDH2 (Homo sapiens, UniProt P48735, R140Q).
T1 construct: made in house; host or cells: Sf21 insect cells (cell pellets prepared at Evotec)
T1 sequence (P48735 40-452 R140Q): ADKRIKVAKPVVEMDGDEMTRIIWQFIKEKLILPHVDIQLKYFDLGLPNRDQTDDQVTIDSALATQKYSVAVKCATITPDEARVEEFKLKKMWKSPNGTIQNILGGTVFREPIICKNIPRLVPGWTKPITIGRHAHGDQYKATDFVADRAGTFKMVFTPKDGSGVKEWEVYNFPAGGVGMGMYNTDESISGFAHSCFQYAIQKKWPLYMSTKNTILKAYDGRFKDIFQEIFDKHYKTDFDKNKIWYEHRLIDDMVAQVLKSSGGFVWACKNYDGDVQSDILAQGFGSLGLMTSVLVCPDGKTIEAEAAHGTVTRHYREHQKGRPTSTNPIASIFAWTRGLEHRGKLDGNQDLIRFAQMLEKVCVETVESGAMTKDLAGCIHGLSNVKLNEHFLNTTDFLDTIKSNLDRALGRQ
The experiment can be described thus: Absorbance assay, variant activity in the presence of equimolar 2OG (inhibition screen). In kind it is biochemical. As to conditions: 6.0 mM 2OG and 6.0 mM test compound, 0.03 μM R140Q IDH2, 50 μM NADPH. Summed up: (§1)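 Quadruplicate technical repeats are run. Reaction start is by reagent dispenser.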

Experiment [2] has as its target T2, R172K IDH2 (Homo sapiens, UniProt P48735, R172K).
T2 construct: made in house; host or cells: Sf21 insect cells (cell pellets prepared at Evotec)
T2 sequence (P48735 40-452 R172K): T1 sequence (P48735 40-452 R140Q) with Q101R, R133K
Described as above. In kind it is biochemical. As to conditions: 1.0 mM 2OG and 1.0 mM test compound, 0.03 μM R172K IDH2, 50 μM NADPH. Put shortly: as §1

Experiment [3] deals with T1, R140Q IDH2. Put plainly: Steady-state kinetics, absorbance assay. It is filed as biochemical. As to conditions: 0.03 μM enzyme, 50 μM NADPH, 20 mM MgCl2, pH 8.0. On the procedure:
(§2) Compounds were dispensed using a CyBio SDW-CW CyBi-Well Simultaneous Pipettor and assay started using a ThermoFisher Multidrop Combi reagent dispenser.
(§3) Reactions were performed as technical duplicates, and all assays were carried out in two independent duplicates.

For experiment [4], the target named is T2, R172K IDH2. The experiment can be described thus: Steady-state kinetics, absorbance assay. It is filed as biochemical. As to conditions: 0.03 μM enzyme, 50 μM NADPH, 20 mM MgCl2, pH 8.0. On the procedure:
as §2, §3

The next experiment has as its target T3, R132C/S280F IDH1 (Homo sapiens, UniProt O75874, R132C/S280F).
T3 construct: made in house
The experiment can be described thus: Steady-state kinetics, NADPH turnover assay. It is filed as biochemical. On the procedure:
independent runs, each composed of technical duplicates (n = 2; mean ± SD); c) R132C/S280F IDH1 assays
monitoring NADPH turnover were performed as reported (3). […]

The target in experiment [5] is T4, R132H IDH1 (Homo sapiens, UniProt O75874, R132H). Put plainly: Steady-state kinetics, absorbance assay. Details: made in house; host or cells: Escherichia coli BL21(DE3) pLyS. In kind it is biochemical. On the procedure: as §2, §3
Target sequence in this assay (O75874 whole entry R132H): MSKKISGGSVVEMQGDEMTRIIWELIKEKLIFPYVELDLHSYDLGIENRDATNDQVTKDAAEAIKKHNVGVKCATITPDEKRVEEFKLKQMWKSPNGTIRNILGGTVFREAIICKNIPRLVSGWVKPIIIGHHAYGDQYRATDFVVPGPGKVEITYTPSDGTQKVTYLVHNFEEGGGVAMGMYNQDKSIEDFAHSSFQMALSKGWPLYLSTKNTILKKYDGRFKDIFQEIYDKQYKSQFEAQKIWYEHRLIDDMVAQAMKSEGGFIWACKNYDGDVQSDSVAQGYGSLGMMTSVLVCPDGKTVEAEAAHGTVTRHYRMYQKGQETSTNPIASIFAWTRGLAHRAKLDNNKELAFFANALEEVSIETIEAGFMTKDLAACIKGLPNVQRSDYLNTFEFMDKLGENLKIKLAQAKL
For experiment [6], the target named is T4, R132H IDH1. The experiment can be described thus: CPMG 1H NMR binding study. The arrangement: made in house; host or cells: Escherichia coli BL21(DE3) pLyS. As to conditions: 50 µM ligand, R132H IDH1 titrated, 10 mM CaCl2, pH 7.5. On the procedure:
Binding studies were performed at 298K in buffer (50 mM Tris-d11, pH 7.5, 10%v/v D2O, 10 mM CaCl2) using CPMG NMR spectroscopy ([56]) and a water suppression pulse sequence.
similar manner as does 2OG. 1H NMR (CPMG-edited (2), 700 MHz) binding studies of R132H IDH1 with (a)
2OG/2OG derivative. […] Red spectra: 50 µM
Assays were performed as described in the Experimental
Procedures Section by titrating a concentrated R132H IDH1 stock solution (1.4 mM) into a mixture containing
(§4) (1 picture or pasted object on this page, not shown here)
Target sequence in this assay (O75874 whole entry R132H): as above

The target in experiment [7] is T4, R132H IDH1. Put plainly: Electrochemical assay (FNR+R132H IDH1)@ITO/PGE electrode. In kind it is biochemical. The arrangement: made in house; host or cells: Escherichia coli BL21(DE3) pLyS (IDH1 R132H). On the procedure:
Assays were carried out in an anaerobic glovebox (Glove Box Technology) under a nitrogen atmosphere. A potentiostat (Autolab PGSTAT 10) running on Nova software was used for all experiments. As previously described, the electrochemical apparatus included an Autolab electrode rotator, a two-chamber custom-made glass electrochemical cell, and custom-made rotating pyrolytic graphite edge (PGE) electrodes ([55]). Platinum wire was used as the counter electrode; it was placed in the working electrode chamber. Electrode potentials (E) were measured against a saturated calomel electrode and converted to the standard hydrogen electrode using a temperature-dependent equation (at 25 °C: ESHE = ESCE + 0.2412 V) ([55]). Nanoporous indium tin oxide (ITO) electrodes were made by electrophoretically depositing ITO nanoparticles (<50 nm, Sigma-Aldrich) onto PGE electrodes (ITO/PGE) as previously described ([55]). […] In all experiments, 0.85 nmol (homodimer basis) of IDH1 R132H was used; the amount of coloaded FNR was adjusted to achieve the desired enzyme loading ratio. Electrodes loaded with enzyme were thoroughly rinsed using buffer solution before each experiment to remove excess enzyme. […]
and controlled electrochemically under steady-state conditions (1).
Conditions: 25 °C, mixed buffer (20 […]
mM each MES, TAPS, CHES, pH 8.0), 10 mM MgCl2, 10 µM NADPH, 4 mL cell volume, (FNR+R132H IDH1)@ITO/PGE electrode, electrode area 0.06 cm2, rotated at 1000 rpm, E = –0.513 V vs SHE, enzyme loading ratios (molar): FNR/R132H IDH1; 2.5 (dimer basis).
as §4
Target sequence in this assay (O75874 2-414 R132H): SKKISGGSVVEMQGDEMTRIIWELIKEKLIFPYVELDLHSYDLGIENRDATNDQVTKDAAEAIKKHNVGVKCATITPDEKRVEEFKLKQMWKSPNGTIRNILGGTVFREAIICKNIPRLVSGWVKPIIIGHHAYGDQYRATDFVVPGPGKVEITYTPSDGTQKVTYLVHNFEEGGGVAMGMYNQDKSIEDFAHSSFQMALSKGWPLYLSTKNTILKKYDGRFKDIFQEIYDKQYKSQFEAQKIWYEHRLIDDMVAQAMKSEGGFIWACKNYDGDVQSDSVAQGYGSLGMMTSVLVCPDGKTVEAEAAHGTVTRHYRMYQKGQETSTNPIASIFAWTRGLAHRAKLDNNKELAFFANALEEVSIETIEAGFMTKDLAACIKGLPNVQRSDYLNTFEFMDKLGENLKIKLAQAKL

Where [8] appears, read: 0.03 μM enzyme, 50 μM NADPH, 20 mM MgCl2, pH 8.0.

This is an account of results in article PMC9939733 (The Journal of Biological Chemistry, 2023).

Changes are numbered by the printed parent chain. “And” between values parts separate entries of the source, which are not always exact repeats. Equal values may be shown once.

T3 sequence (O75874 whole entry R132C/S280F): as the sequence (O75874 whole entry R132H) above, with H132C, S280F counted along it

The Vmax is the rate approached at saturating substrate. As for `O=C(O)CCC(=O)C(=O)O` [2OG, 2-oxoglutarate, reference compound], the “activity [%] (%-substrate conversion after 20 min incubation)” value on R140Q IDH2 [1] and at R172K IDH2 [2] was 100% throughout. In addition, the Kmapp on R140Q IDH2 [3] was 5.1 ± 1.2 mM and ~5.1 mM; on R172K IDH2 [4] it was 0.35 ± 0.04 mM; on R132C/S280F IDH1, 0.04 ± 0.01 mM; at R132H IDH1 [5] (setting [8]), ~ 0.85 mM and 0.85 ± 0.19 mM and 0.85 mM. Besides, the kcatapp at R140Q IDH2 [3] was 0.49 ± 0.04 s⁻¹ and 0.5 to 0.7 s⁻¹; at R172K IDH2 [4], 0.72 ± 0.04 s⁻¹ and 0.5 to 0.7 s⁻¹; on R132H IDH1 [5] (setting [8]), 0.72 ± 0.04 s⁻¹ and 0.5 to 0.7 s⁻¹. For the same molecule, the Vmax on R132H IDH1 [5] (experimental value used for Michaelis-Menten simulation, Fig. 3H) is 1.3 µM/min. Further, on R132H IDH1 [6], the “signal depletion (CPMG 1H NMR)” value is around 80%. Besides, the “predicted change in catalytic rate” value on R132H IDH1 [7] is given as −9%. The “Kmapp (electrochemical assay)” value at R132H IDH1 [7] (25 °C, pH 8.0, 10 mM MgCl2, 10 µM NADPH, nanoconfined enzyme) was around 0.6 mM. The “decrease of R132H IDH1 faradaic 'coupled' current during each scan” value at R132H IDH1 [7] (cyclic voltammetry, stationary electrode, 20 μM NADPH, 10 mM MgCl2, pH 8) is recorded as −10%.
